Holding throughout (format): cell-based
Data set [1] concerns human prostate cancer cell line DU145. The data set can be described thus: XTT proliferation assay, DU145. The settings on record: DU-145, DU145 cells, average of two independent experiments. An excerpt:
(§1) For further characterization, substance 2 was investigated for its anti-proliferative effect using a panel of 12 human tumor cell lines. The cell lines used were the human glioma cell lines A172 (ATCC CRL-1620), U118 (ATCC HTB-15) and U373 (ATCC HTB-17), the rat glioma cell line C6 (ATCC CCL-107), the human lung carcinoma cell line A549, the human epidermoid carcinoma A431 (ATCC CRL-2592), the human prostate cancer cell lines DU145 (ATCC HTB-81) and PC3 (ATCC CRL-1435), the human colon adenocarcinoma cell line HT 29 (ATCC HTB-38), the human pancreas adenocarcinoma cell line ASPC1 (ATCC CRL-1682) and the human breast cancer cell lines T47D (ECACC 88062428) and MCAMB435 (NCI 914182). […]
(§2) The adherent, growing tumor cell lines KB/HeLa, SKOV-3, SF-268, NCI-H460, ASPC1, A172, A431, A549, DU145, C6, MDAMB435, HT29, PC3, T47D, U118MG and U373MG were cultured under standard conditions in the gassing incubator at 37° C., 5% CO2 and 95% relative humidity. […] Subsequently, the cell plates were incubated for a further 3 hours in a gassing incubator and the optical density (OD490 nm) was determined in the photometer. The percentage inhibition, relative to the control, is determined by means of the OD490 nm and plotted semi-logarithmically in the form of a concentration vs. activity curve. […]

The test system of data set [2] is lung carcinoma cell line NCI-H460. Kind of data set: XTT proliferation assay, NCI-H460. The settings on record: Homo sapiens; NCI-H460 cells, 45 hours incubation.
Description: (§3) The substance of Example 2 was investigated in a proliferation test on established tumor cell lines for its anti-proliferative activity. The test used determines the cellular dehydrogenase activity and enables the cell vitality and, indirectly, the cell count to be determined. The cell lines used are the human cervix carcinoma cell line KB/HeLa (ATCC CCL17), the ovarian adenocarcinoma cell line SKOV-3 (ATCC HTB77), the human glioblastoma cell line SF-268 (NCI 503138) and the lung carcinoma cell line NCI-H460 (NCI 503473). Moreover, for investigating the effect of the substance specifically on the cell cycle, an RKOp27 cell system was used (M. Schmidt et al. Oncogene 19(20):2423-9, 2000). […]
as §2

Data set [3] has as its system human lung carcinoma cell line A549. The data set can be described thus: XTT proliferation assay, A549. Conditions: A549 cells, average of two independent experiments.
Description: as §1, §2
A general note: Tetrazolium dyes change colour on reduction, which living cells bring about.

In data set [4] the test system is human glioma cell line U373. The data set can be described thus: XTT proliferation assay, U373MG. The settings on record: U373 MG, U373MG cells, average of two independent experiments.
Description: as §1, §2

For data set [5], the system named is human breast cancer cell line T47D. Kind of data set: XTT proliferation assay, T47D. The settings on record: T47D cells, average of two independent experiments.
Description: as §1, §2

The test system of data set [6] is human colon adenocarcinoma cell line HT 29. Kind of data set: XTT proliferation assay, HT29. The settings on record: HT29 cells, average of two independent experiments.
Description: as §1, §2

Data set [7] deals with human epidermoid carcinoma A431. The data set can be described thus: XTT proliferation assay, A431. The settings on record: A-431, A431 cells, average of two independent experiments.
Description: as §1, §2

The test system of data set [8] is RKOp27 human colon carcinoma cells. Kind of data set: Cell cycle analysis by means of the RKOp27 model (XTT). The settings on record: for EC50: Homo sapiens, RKOp27, 45 h.
Description: The substance of Example 2 was investigated in a proliferation test on established tumor cell lines for its anti-proliferative activity. The test used determines the cellular dehydrogenase activity and enables the cell vitality and, indirectly, the cell count to be determined. The cell lines used are the human cervix carcinoma cell line KB/HeLa (ATCC CCL17), the ovarian adenocarcinoma cell line SKOV-3 (ATCC HTB77), the human glioblastoma cell line SF-268 (NCI 503138) and the lung carcinoma cell line NCI-H460 (NCI 503473). Moreover, for investigating the effect of the substance specifically on the cell cycle, an RKOp27 cell system was used (M. Schmidt et al. Oncogene 19(20):2423-9, 2000). The RKO is a human colon carcinoma line, in which the cell cycle inhibitor p27^kip1 was expressed by means of the Ecdyson Expression System and can be brought to a cell cycle arrest in G2. A substance of nonspecific activity inhibits the proliferation independently of whether the RKO cell is or is not arrested in G1 or G2. On the other hand, cell cycle specific substances, such as tubulin inhibitors, are cytotoxic only when the cells are not arrested and passed through the cell cycle. In Table 2, the cytotoxic or growth-inhibiting activity of the compound described is shown with and without expression of p27^kip1.
as §2, with “curve. The EC50 is calculated from the concentration-activity curve by means of a regression analysis, using the Graphpad Prism program” for “curve.”

Data set [9] has as its system human prostate cancer cell line PC3. The data set can be described thus: XTT proliferation assay, PC3. Conditions: PC-3, PC3 cells, average of two independent experiments.
Description: as §1, §2

In data set [10] the test system is human cervix carcinoma cell line KB/HeLa. The data set can be described thus: XTT proliferation assay, KB/HeLa. Conditions: KB/HeLa cells, 45 hours incubation.
Description: as §3, §2

In data set [11] the test system is ovarian adenocarcinoma cell line SKOV-3. Kind of data set: XTT proliferation assay, SKOV-3. The settings on record: Homo sapiens, SK-OV-3; SKOV-3 cells, 45 hours incubation.
Description: as §3, §2

Data set [12] relates to human glioma cell line A172. Kind of data set: XTT proliferation assay, A172. Conditions: A 172, A172 cells, average of two independent experiments.
Description: as §1, §2

Data set [13] concerns human glioblastoma cell line SF-268. Kind of data set: XTT proliferation assay, SF-268. Conditions: SF-268 cells, 45 hours incubation.
Description: as §3, §2

For data set [14], the system named is human breast cancer cell line MDA MB435. The data set can be described thus: XTT proliferation assay, MDA MB435. The settings on record: MDA-MB-435, MDA MB435 cells, average of two independent experiments.
Description: as §1, §2

Data set [15] has as its system human glioma cell line U118. The data set can be described thus: XTT proliferation assay, U118MG. The settings on record: U-118-MG, U118MG cells, average of two independent experiments.
Description: as §1, §2

Data set [16] deals with human pancreas adenocarcinoma cell line ASPC1. The data set can be described thus: XTT proliferation assay, ASPC1. The settings on record: ASPC1 cells, average of two independent experiments.
Description: as §1, §2

Data set [17] deals with rat glioma cell line C6. The data set can be described thus: XTT proliferation assay, C6. The settings on record: C6 rat glioma cells, average of two independent experiments.
Description: as §1, §2

Values after ≈ are worked out from the molar mass of the structure shown. Like-named read-outs stand apart in the source and are kept apart here. Some results are limits rather than exact numbers.

Regarding `COc1cc(OC)cc(N2CCN(C(=O)c3c4ccccc4cc4ccccc34)CC2)c1` [Example 2, Anthracene-9-yl-[4-(3,5-dimethoxy-phenyl)-piperazine-1-yl]-methanone], the EC50 in [1] was 0.045 µg/mL (≈ 0.106 µM); in data set [2], 0.054 µg/mL (≈ 0.127 µM); in [3], 0.066 µg/mL (≈ 0.155 µM); in [4], 0.057 µg/mL (≈ 0.134 µM); in data set [5], 0.022 µg/mL (≈ 0.0516 µM); in data set [6], 0.061 µg/mL (≈ 0.143 µM). Moreover, the EC50 was 0.044 µg/mL (≈ 0.103 µM) in data set [7]; 0.058 µg/mL (≈ 0.136 µM) in [8] (read-out: XTT Proliferation Assay, EC50 RKOP27); over 3.16 µg/mL in data set [8] (read-out: XTT Proliferation Assay, EC50 RKOP27 ind.); 0.049 µg/mL (≈ 0.115 µM) in [9]; 0.048 µg/mL (≈ 0.113 µM) in data set [10]; 0.047 µg/mL (≈ 0.11 µM) in [11]. Also, the EC50 was found to be 0.046 µg/mL (≈ 0.108 µM) in data set [12]; 0.043 µg/mL (≈ 0.101 µM) in [13]; 0.054 µg/mL (≈ 0.127 µM) in data set [14]; 0.059 µg/mL (≈ 0.138 µM) in data set [15]; 0.11 µg/mL (≈ 0.258 µM) in [16]; 0.17 µg/mL (≈ 0.399 µM) in [17]. Also, the “cytotoxic activity in the induced state of p27kip1” value in data set [8] (RKOp27 cells, p27kip1 induced) is listed as “did not show any cytotoxic activity”.
